Source: patent publication US20240225971A1 (Genomatica, Inc., priority 2021, published 2024)
Converted amounts (≈) assume the structure as drawn. Read-outs that look alike come from different tables or passages of the source.

How the values were obtained:
[1] = physchem
Description: The term “fragrance composition” or “composition,” as used herein, represents a composition containing one or more fragrance ingredients described here and formulated with a physiologically acceptable diluent or solvent, used interchangeably here. In a fragrance composition, or composition that has a fragrance, such as a perfume, 20%-40% of the observable liquid may be comprised of a diluent, i.e., the delivery system for scents of the fragrance ingredients. The “log P” value, as used here, indicates whether a substance or fragrance ingredient will be absorbed by humans, animals, plants, or living tissue; diffused or disseminated by water.
(§1) Also included is the molecular weight of each of the fragrance ingredients. Not determinable (ND).

[2] = physchem; remark: listed apart in the source
Description: as §1

[3] = Vapor pressure of fragrance ingredients
Description: as §1

[4] = Flash point of fragrance ingredients; type: physicochemical
Description: as §1

[5] = Clarity of fragrance ingredient in bioderived 1,3-BG by visual observation
Description: Clarity for each of the fragrance ingredients (10% in bioderived 1,3-BG) was determined by visual observations after compounding and blending the fragrance ingredient with bioderived 1,3-BG and identified as clear, slightly haze, cloudy, particles, or separation.
Clarity for each of the fragrance ingredients (at 1% in bioderived 1,3-BG) was determined by visual observations after compounding and blending the fragrance ingredient with bioderived 1,3-BG and identified as clear, slightly haze, cloudy, particles, or separation.

[6] = test system: microorganisms; experiment: Minimum Inhibitory Concentration (MIC) testing; type: cell-based; conditions: concentration completely inhibiting microbial growth
[7] = 10% ingredient in bioderived 1,3-BG, clear, slightly haze, cloudy, particles, or separation

Molecule: O=Cc1ccc2c(c1)OCO2 [Heliotropine]
- logP [1]: 1.05
- Water Solubility [2]: 3500.000 µg/mL
- Vapor Pressure [3]: 0.003 mm hg
- Flash Point [4]: 110 °C
- Clarity 1% [5]: Clear
- Clarity 10% [5]: Clear

Molecule: CC1(O)CCC2C(=CCCC2(C)C)C1 (stereo not drawn) [Ambrinol]
- logP [1]: 3.785
- Water Solubility [2]: 134.300 µg/mL
- Vapor Pressure [3]: 0.0005 mm hg
- Flash Point [4]: 100 °C
- Clarity 10% [5, 7]: Clear

Molecule: COc1ccc(COC(C)=O)cc1 [Anisyl Acetate]
- logP [1]: 1.887
- Water Solubility ([2]; 25° C.): 782.900 µg/mL
- Vapor Pressure [3]: 0.021 mm hg
- Flash Point [4]: 135 °C
- Clarity 1% [5]: Clear
- Clarity 10% [5]: Clear

Molecule: CC1=CC(C)C(C=O)CC1 (stereo not drawn) [Cyclal C/Triplal]
- logP [1]: 3
- Water Solubility [2]: 311.500 µg/mL
- Vapor Pressure [3]: 0.578 mm hg
- Flash Point [4]: 66 °C
- Clarity 10% [5, 7]: Clear

Molecule: C=CCOC(=O)COCCC(C)C [Allyl Amyl Glycolate]
- logP [1]: 2.7
- Water Solubility ([2]; 25° C.): 510.700 µg/mL
- Vapor Pressure [3]: 0.04 mm hg
- Flash Point [4]: 93 °C

Molecule: CCCCCCCCCC=O [Aldehyde C-10]
- logP [1]: 3.97
- Water Solubility ([2]; 25° C.): 43.520 µg/mL
- Vapor Pressure [3]: 0.207 mm hg
- Flash Point [4]: 82 °C

Molecule: C=CCCCCCCCCC=O [Aldehyde C-11 Undecylenic]
- logP [1]: 4.072
- Water Solubility ([2]; 25° C.): 30.000 µg/mL
- Vapor Pressure [3]: 0.039 mm hg
- Flash Point [4]: 76 °C

Molecule: N#C/C=C/c1ccccc1 [Cinnamalva]
- logP [1]: 1.84
- Water Solubility [2]: 1067.000 µg/mL
- Vapor Pressure [3]: 0.023 mm hg
- Flash Point [4]: 94 °C
- Clarity 10% [5, 7]: Clear

Molecule: C=CC(C)(CCC=C(C)C)OC(C)=O (stereo not drawn) [Linalyl Acetate]
- logP [1]: 3.93
- solubility ([2]; 25 °C, water): 20.1 µg/mL
- Vapor Pressure [3]: 0.116 mm hg
- Flash Point [4]: 94 °C
- Clarity 1% [5]: Clear

Molecule: CC/C=C\CCO [Cis-3-Hexenol]
- logP [1]: 1.7
- Vapor Pressure [3]: 1.039 mm hg
- Flash Point [4]: 44 °C
- Clarity 10% [5, 7]: Clear

Molecule: CCCCCCCCCC(C)C=O (stereo not drawn) [Aldehyde C-12 MNA]
- logP [1]: 4.834
- Water Solubility ([2]; 25° C.): 5.372 µg/mL
- Vapor Pressure [3]: 4.834 mm hg
- Flash Point [4]: 69 °C
- Clarity 10% [5, 7]: Clear

Molecule: CC1C(C)(C)C2=C(C(=O)CCC2)C1(C)C (stereo not drawn) [Cashmeran]
- logP [1]: 4.5
- Water Solubility ([2]; 25° C.): 5.937 µg/mL
- Vapor Pressure [3]: 0.003 mm hg
- Flash Point [4]: 94 °C
- Clarity 10% [5, 7]: Clear

Molecule: Caryophyllene
- logP [1]: 6.3
- Water Solubility ([2]; 25° C.): 0.050 µg/mL
- Vapor Pressure [3]: 0.013 mm hg
- Flash Point [4]: 16 °C
- Clarity 1% [5]: Slightly Haze
- Clarity 10% [5]: Cloudy

Molecule: C=CC(C)(O)CCC=C(C)C (stereo not drawn) [Linalool]
- Vapor Pressure [3]: 0.016 mm hg
- Flash Point [4]: 75 °C
- Clarity 10% [5, 7]: Clear

Molecule: CCOc1cc(C=O)ccc1O [Ethyl Vanillin]
- Water Solubility [2]: 2820.000 µg/mL
- Vapor Pressure [3]: 0.001 mm hg
- Flash Point [4]: 127 °C
- Clarity 10% [5, 7]: Clear

Molecule: CC(=O)OC(C)(C)C1CC=C(C)CC1 (stereo not drawn) [Terpinyl Acetate]
- logP [1]: 3.59
- Water Solubility ([2]; 25° C.): 18.970 µg/mL
- Vapor Pressure [3]: 0.058 mm hg
- Flash Point [4]: 100 °C
- Clarity 1% [5]: Clear

Molecule: CC(C)CCCC(C)(C)O [Dimetol]
- logP [1]: 2.976
- Water Solubility ([2]; 25° C.): 777.000 µg/mL
- Vapor Pressure [3]: 0.33 mm hg
- Flash Point [4]: 63 °C
- Clarity 10% [5, 7]: Clear

Molecule: C=C(C)[C@@H]1CCC2=CC(=O)C[C@@H](C)[C@]2(C)C1 [Nootkatone]
- logP [1]: 3.77
- solubility ([2]; 25 °C, water): 2.38 µg/mL (≈ 0.0109 mM)
- Vapor Pressure [3]: 0.000358 mm hg
- Flash Point [4]: 110 °C
- Clarity 10% [5, 7]: Clear

Molecule: CC=Cc1ccc(OC)cc1 [Anethole]
- Vapor Pressure [3]: 0.069 mm hg
- Flash Point [4]: 110 °C
- Clarity 10% [5, 7]: Cloudy

Molecule: CCOC(=O)CC1(C)OCCO1 [Fructone]
- logP [1]: 0.982
- Water Solubility ([2]; 25° C.): 100.000 µg/mL
- Vapor Pressure [3]: 0.219 mm hg
- Flash Point [4]: 93 °C
- Clarity 10% [5, 7]: Clear

Molecule: CC1CC=CCCCCCCCCCC(=O)C1 (stereo not drawn) [Muscenone]
- logP [1]: 4.88
- Water Solubility ([2]; 25° C.): 0.346 µg/mL
- Vapor Pressure [3]: 0.1 mm hg
- Flash Point [4]: 100 °C
- Clarity 10% [5, 7]: Cloudy

Molecule: OCCCO [1,3-PG, 1,3-Propylene Glycol]
- MIC A. brasiliensis ([6]; A. brasiliensis): >350 mg/mL
- MIC C. albicans ([6]; C. albicans): 250 mg/mL (≈ 3290 mM)
- MIC E. coli ([6]; E. coli): 225 mg/mL (≈ 2960 mM)
- MIC P. aeruginosa ([6]; P. aeruginosa): 200 mg/mL (≈ 2630 mM)
- MIC S. aureus ([6]; S. aureus): 300 mg/mL (≈ 3940 mM)

Molecule: CC(=O)OCc1ccccc1 [Benzyl Acetate]
- Vapor Pressure [3]: 0.177 mm hg
- Flash Point [4]: 91 °C
- Clarity 10% [5, 7]: Clear

Molecule: CC(=O)OCCC(C)C [Isoamyl Acetate]
- Water Solubility ([2]; 25° C.): 2000.000 µg/mL
- Vapor Pressure [3]: 5.6 mm hg
- Flash Point [4]: 38 °C
- Clarity 10% [5, 7]: Clear

Molecule: CC(=O)C(C)=CC1C(C)=CCCC1(C)C (stereo not drawn) [Methyl Ionone Gamma]
- logP [1]: 4.315
- Water Solubility [2]: 2.980 µg/mL
- Vapor Pressure [3]: 0.006 mm hg
- Flash Point [4]: 110 °C
- Clarity 10% [5, 7]: Cloudy

Molecule: CCCCCCCCCCCC=O [Aldehyde C-12 Lauric]
- logP [1]: 4.989
- Water Solubility ([2]; 25° C.): 4.649 µg/mL
- Vapor Pressure [3]: 0.034 mm hg
- Flash Point [4]: 116 °C
- Clarity 10% [5, 7]: Clear

Molecule: CC/C(=C\CC1CC=C(C)C1(C)C)CO (stereo not drawn) [Bacdanol]
- logP [1]: 4.3
- Water Solubility ([2]; 25° C.): 17.000 µg/mL
- Vapor Pressure [3]: 0.00028 mm hg
- Flash Point [4]: 199 °C
- Clarity 10% [5, 7]: Clear

Molecule: CC1(C)CCC[C@]2(C)[C@H]3CCO[C@]3(C)CC[C@@H]12 [Ambrox Super (Ambroxan), Ambroxan]
- Vapor Pressure [3]: 0.009 mm hg
- Flash Point [4]: 100 °C
- Clarity 10% [5, 7]: Particles

Molecule: COc1cc(C=O)ccc1O [Vanillin]
- solubility ([2]; water, 25 °C): 6880 µg/mL (≈ 45.2 mM)
- Vapor Pressure [3]: 0.002 mm hg
- Flash Point [4]: 153 °C
- Clarity 10% [5, 7]: Clear

Molecule: CC1COCc2cc3c(cc21)C(C)(C)C(C)C3(C)C (stereo not drawn) [Galaxolide]
- logP [1]: 5.92
- solubility ([2]; 25 °C, water): 0.194 µg/mL (≈ 0.000751 mM)
- Vapor Pressure [3]: 0.000414 mm hg
- Flash Point [4]: 104 °C
- Clarity 10% [5, 7]: Separation

Molecule: O=C1CCCCCCCCCCCC(=O)OCCO1 [Ethylene Brassylate]
- logP [1]: 2.77
- solubility ([2]; water, 25 °C): 1.72 µg/mL (≈ 0.00636 mM)
- Vapor Pressure [3]: 0 mm hg
- Flash Point [4]: 110 °C
- Clarity 10% [5, 7]: Cloudy

Molecule: CC12CCC(CC1)C(C)(C)O2 [Eucalyptol]
- logP [1]: 2.74
- solubility ([2]; water, 25 °C): 3500 µg/mL (≈ 22.7 mM)
- Vapor Pressure [3]: 1.9 mm hg
- Flash Point [4]: 50 °C
- Clarity 10% [5, 7]: Clear

Molecule: c1ccc(COCc2ccccc2)cc1 [Dibenzyl Ether]
- logP [1]: 3.31
- solubility ([2]; water, 25 °C): 40 µg/mL (≈ 0.202 mM)
- Vapor Pressure [3]: 0.00103 mm hg
- Flash Point [4]: 93 °C
- Clarity 10% [5, 7]: Cloudy

Molecule: C=CC(C)CCCC(C)(C)O (stereo not drawn) [Dihydro Myrcenol]
- logP [1]: 2.99
- Water Solubility ([2]; 25° C.): 252.200 µg/mL
- Vapor Pressure [3]: 0.166 mm hg
- Flash Point [4]: 76 °C
- Clarity 10% [5, 7]: Clear

Molecule: CC(=O)C1(C)CC2=C(CCCC2(C)C)CC1C (stereo not drawn) [Iso E Super]
- logP [1]: 4.71
- Vapor Pressure [3]: 0.001 mm hg
- Flash Point [4]: 111 °C
- Clarity 10% [5, 7]: Cloudy

Molecule: COc1ccc(C=O)cc1 [Anisic Aldehyde]
- Water Solubility [2]: 4290.000 µg/mL
- Vapor Pressure [3]: 1 mm hg
- Flash Point [4]: 116 °C
- Clarity 10% [5, 7]: Clear

Molecule: CC/C=C\CCOC(=O)c1ccccc1O [Cis-3-Hexenyl Salicylate]
- logP [1]: 4.4
- solubility ([2]; water, 25 °C): 9.52 µg/mL (≈ 0.0432 mM)
- Vapor Pressure [3]: 0.000246 mm hg
- Flash Point [4]: 110 °C
- Clarity 10% [5, 7]: Cloudy

Molecule: CC(=O)C1=C(C)C2CC3(C1)C(C)CCC3C2(C)C (stereo not drawn) [Vertofix Coeur]
- logP [1]: 5.6
- Vapor Pressure [3]: 0.000084 mm hg
- Flash Point [4]: 100 °C
- Clarity 10% [5, 7]: Cloudy

Molecule: CCC(CC)C(=O)N(C)c1cccc(C)c1 [Paradisamide]
- logP [1]: 3.295
- Water Solubility ([2]; 25° C.): 46.430 µg/mL
- Vapor Pressure [3]: 0.0038 mm hg
- Flash Point [4]: 138 °C
- Clarity 10% [5, 7]: Clear

Molecule: CC(C)=CCCC(C)=CC=O [Citral]
- Vapor Pressure [3]: 0.2 mm hg
- Flash Point [4]: 98 °C
- Clarity 10% [5, 7]: Clear
